Measured values from US20100284985A1, “Composition” (Danisco A/S, priority 2007, published 2010).

What was measured:
Experiment in all cases: MIC assay, LAE
Format in all cases: cell-based
Bacillus cereus DCS 500 = system: Bacillus cereus DCS 500
Protocol: (§1) The Minimal Inhibition Concentration Assay (MIC) is a 96 well liquid based assay developed for a semi-automated assessment system and performed essentially as described in (7). […] From an overnight culture […] of each strain was inoculated in one well corresponding to an approximate inoculation density of 10^3-10^4 cells/well. Media used were CASO, MRS and YM (Appendix 1). Strains were incubated at 20° C., 25° C., 37° C. and under aerobic/anaerobic conditions depending on the preferred conditions for the particular strain (Appendix 1). At time zero, after adding the AM, the optical density (O.D.) of the bacterial culture is measured at 620 nm and then again after 24 hours. […] MIC is defined as the lowest concentration of the AM that will inhibit measurable growth. A bacteriostatic effect is defined as the OD620 at 24 h being less than or equal to 20% of the growth control.

[1] = system: Bacillus licheniformis (spores) DCS 561sp; conditions: ppm of the active component
Protocol: as §1

[2] = system: Bacillus licheniformis DCS 561
Protocol: as §1

[3] = system: Bacillus weihenstephanensis DCS 565
Protocol: as §1

[4] = system: Brochothrix thermosphacta DCS 780
Protocol: as §1

Candida pulcherrima H117 = conditions: ppm of the active component
Protocol: as §1

[5] = system: Candida tropicalis DCS 604
Protocol: as §1

[6] = system: Citrobacter freundii DCS 566
Protocol: as §1

[7] = system: Clostridium algidicarnis DCS 563
Protocol: as §1

[8] = system: Clostridium sporogenes (spores) DCS 541sp; conditions: ppm of the active component
Protocol: as §1

[9] = system: Clostridium sporogenes (spores) DCS 808sp; conditions: ppm of the active component
Protocol: as §1

[10] = system: Clostridium sporogenes (spores) DCS 812sp; conditions: ppm of the active component
Protocol: as §1

[11] = system: Clostridium sporogenes DCS 541
Protocol: as §1

[12] = system: Clostridium sporogenes DCS 808
Protocol: as §1

[13] = system: Clostridium sporogenes DCS 812
Protocol: as §1

[14] = system: Debaryomyces hansenii DCS 605
Protocol: as §1

Escherichia coli DCS 497 = system: Escherichia coli DCS 497
Protocol: as §1

Hafnia alvei DCS 613 = system: Hafnia alvei DCS 613
Protocol: as §1

[15] = system: Klebsiella oxytoca DCS 567
Protocol: as §1

[16] = system: Lactobacilllus farciminis DCS 611; conditions: ppm of the active component
Protocol: as §1

[17] = Bacillus cereus, DCS500, ppm of the active component
[18] = Bacillus licheniformis, DCS561, ppm of the active component
[19] = Bacillus mycoides, DCS565, ppm of the active component
[20] = Brochothrix thermosphacta, DCS780, ppm of the active component
[21] = Candida tropicalis, DCS604, ppm of the active component
[22] = Citrobacter freundii, DCS566, ppm of the active component
[23] = Clostridium algidicarnis, DCS563, ppm of the active component
[24] = Clostridium sporogenes, DCS541, ppm of the active component
[25] = Clostridium sporogenes, DCS808, ppm of the active component
[26] = Clostridium sporogenes, DCS812, ppm of the active component
[27] = Debaryomyces hansenii, DCS605, ppm of the active component
[28] = Escherichia coli, DCS497, ppm of the active component
[29] = Hafnia alvei, DCS613, ppm of the active component
[30] = Klebsiella oxytoca, DCS567, ppm of the active component

CCCCCCCCCCCC(=O)N[C@@H](CCCNC(=N)N)C(=O)OCC.Cl [LAE, N^α-Lauroyl-L-arginine ethyl ester monohydrochloride]
MBC (Bacillus cereus DCS 500; [17]): 14.6 µg/mL
MIC (Bacillus cereus DCS 500; [17]): 12.1 µg/mL
increased lag phase (Bacillus cereus DCS 500; ppm of the active component): 6.5 ppm
MBC ([1]; Bacillus licheniformis): 61.5 µg/mL
MIC ([1]; Bacillus licheniformis): 6.5 µg/mL
increased lag phase [1]: 6.5 ppm
MBC [2, 18]: 14.6 µg/mL
MIC [2, 18]: 14.6 µg/mL
increased lag phase ([2]; ppm of the active component): 4.3 ppm
MBC [3, 19]: 14.6 µg/mL
MIC [3, 19]: 14.6 µg/mL
increased lag phase ([3]; ppm of the active component): 10.5 ppm
MBC [4, 20]: 9.7 µg/mL
MIC [4, 20]: 8.1 µg/mL
increased lag phase ([4]; ppm of the active component): 4.3 ppm
MBC (Candida pulcherrima H117; Metschnikowia pulcherrima): 14.6 µg/mL
MIC (Candida pulcherrima H117; Metschnikowia pulcherrima): 9.7 µg/mL
increased lag phase (Candida pulcherrima H117): 6.5 ppm
MBC [5, 21]: 4.3 µg/mL
MIC [5, 21]: 4.3 µg/mL
increased lag phase ([5]; ppm of the active component): 4.3 ppm
MBC [6, 22]: 21.9 µg/mL
MIC [6, 22]: 18.2 µg/mL
increased lag phase ([6]; ppm of the active component): 8.1 ppm
MBC [7, 23]: 14.9 µg/mL
MIC [7, 23]: 9.7 µg/mL
increased lag phase ([7]; ppm of the active component): 6.5 ppm
MBC ([8]; Clostridium sporogenes): 14.6 µg/mL
MIC ([8]; Clostridium sporogenes): 9.7 µg/mL
increased lag phase [8]: 9.7 ppm
MBC ([9]; Clostridium sporogenes): 18.3 µg/mL
MIC ([9]; Clostridium sporogenes): 8.1 µg/mL
increased lag phase [9]: 8.1 ppm
MBC ([10]; Clostridium sporogenes): 8.1 µg/mL
MIC ([10]; Clostridium sporogenes): 4.3 µg/mL
increased lag phase [10]: 4.3 ppm
MBC [11, 24]: 9.7 µg/mL
MIC [11, 24]: 9.7 µg/mL
increased lag phase ([11]; ppm of the active component): 9.7 ppm
MBC [12, 25]: 9.7 µg/mL
MIC [12, 25]: 9.7 µg/mL
increased lag phase ([12]; ppm of the active component): 9.7 ppm
MBC [13, 26]: 9.7 µg/mL
MIC [13, 26]: 9.7 µg/mL
increased lag phase ([13]; ppm of the active component): 9.7 ppm
MBC [14, 27]: 4.3 µg/mL
MIC [14, 27]: 4.3 µg/mL
increased lag phase ([14]; ppm of the active component): 4.3 ppm
MBC (Escherichia coli DCS 497; [28]): 21.9 µg/mL
MIC (Escherichia coli DCS 497; [28]): 21.9 µg/mL
increased lag phase (Escherichia coli DCS 497; ppm of the active component): 18.2 ppm
MBC (Hafnia alvei DCS 613; [29]): 27.4 µg/mL
MIC (Hafnia alvei DCS 613; [29]): 21.9 µg/mL
increased lag phase (Hafnia alvei DCS 613; ppm of the active component): 10.5 ppm
MBC [15, 30]: 41 µg/mL
MIC [15, 30]: 32.8 µg/mL
increased lag phase ([15]; ppm of the active component): 18.2 ppm
MBC [16]: > 166 µg/mL
